{
  "source": "paper PMC13099375",
  "about": "(Nature biomedical engineering, 2025)",
  "key": {"[1]": {"test_system": "primary mouse B cells (mouse CD19)", "assay": "FMC63 IgG binding to primary mouse B cells by flow cytometry (EDF7D)"}, "[2]": {"test_system": "FMC63^scFv binding to CD19^+ NALM6 cells", "assay": "FMC63 scFv staining of NALM6 cells after pre-incubation with mimotope (Fig 4E)", "design": "species or system human", "conditions": "scFv pre-blocked with mimotope"}, "[3]": {"test_system": "FMC63^IgG binding to CD19^+ NALM6 cells", "assay": "FMC63 IgG staining of NALM6 cells in the presence of mimotope (Fig 4E)", "design": "species or system human"}, "CD19-CAR Jurkat T cells": {"test_system": "CD19-CAR Jurkat T cells", "assay": "CD69 expression on mimotope-pre-incubated CD19-CAR Jurkat T cells co-cultured with NALM6 (Fig 4F)", "format": "cell-based, human", "conditions": "1:1 E:T, 16 hours"}, "FMC63^scFv [4]": {"test_system": "FMC63^scFv", "assay": "Retention of prebound biotin-FMC63 scFv on yeast clones under competition with FMC63 IgG (Fig 3I)", "format": "binding", "conditions": "pre-stained with 50nM Biotin-FMC63^scFv, then 1μM FMC63^IgG"}, "FMC63^IgG [5]": {"test_system": "FMC63^IgG", "assay": "ELISA of FMC63 IgG binding to plate-bound synthetic mimotopes (Fig 2F, 3F)", "conditions": "peptide pre-treated with DTT"}, "FMC63^IgG [6]": {"test_system": "FMC63^IgG", "assay": "Flow cytometry of FMC63 IgG binding to mimotope yeast clones (Fig 2E, 3B, 3D, 3E)"}, "FMC63-mCAR-T cells [7]": {"test_system": "FMC63-mCAR-T cells", "assay": "CTV dilution of FMC63-mCAR-T cells in LNs after amph-mimotope vaccination (Fig 5D)", "format": "in vivo, C57BL/6 mice", "conditions": "10 nmol amph-peptide + 25μg CDG, 48 hours after vaccination, n=3"}, "FMC63^scFv [8]": {"test_system": "FMC63^scFv", "assay": "FMC63 scFv binding to K562 cells labeled with amph-mimotopes (Fig 3J)", "conditions": "read-out: Kd^scFv (apparent); K562 labeled with 500 nM amph-mimotope, fluorescent FMC63^scFv, flow cytometry"}, "CD19 CAR-T cells": {"test_system": "CD19 CAR-T cells", "assay": "IFN-γ ELISA, human CD19 CAR-T co-cultured with amph-mimotope-labeled K562 cells (Fig 2H)", "format": "cell-based", "conditions": "6 hr"}, "EGFRvIII-CAR-T cells": {"test_system": "EGFRvIII-CAR-T cells", "assay": "IFN-γ ELISA, control EGFRvIII-CAR-T co-cultured with amph-labeled K562 cells (Fig 2I)", "format": "cell-based"}, "FMC63-mCAR-T cells [9]": {"test_system": "FMC63-mCAR-T cells", "assay": "IFN-γ ELISA, FMC63-mCAR-T co-cultured with amph-mimotope-labeled K562 cells (Fig 5B)", "format": "cell-based, mouse"}, "[10]": {"assay": "Clinical data, adult B-cell lymphoma: peak CAR-T expansion by qPCR (EDF2B)", "format": "in vivo, human", "conditions": "relapsed/refractory B-NHL"}, "[11]": {"assay": "Clinical data, pediatric B-ALL: CAR-T expansion by qPCR and B cell aplasia (Fig 1A-D)", "format": "in vivo, human", "conditions": "for probability of continued B-cell aplasia: at 6 months"}, "[12]": {"assay": "Clinical data, adult B-ALL: peak CAR-T expansion by qPCR (EDF2A)", "format": "in vivo, human", "conditions": "adult relapsed/refractory ALL"}},
  "note": "pKd: −log10 of the molar value. Where “and” joins values, the source holds several entries; their conditions need not be identical. Equal values may be shown once. Bridges are numbered along the chain shown (N, C = ends). Where no end group is shown, it is not given here. [ ]: non-standard residue; d: D form. Lys(N3) = [N-]=[N+]=NCCCC[C@H](N)C(=O)O",
  "data": [
    {"substance": "FMC63 IgG: recombinant FMC63 (anti-human CD19) expressed as a full-length IgG", "values": [
      {"measurement": "binding to WT B cells expressing mouse CD19 (in words)", "setting": "[1]", "value": "minimal binding"}
    ]},
    {"substance": "PRKHSGRICPWNCKELDNPPFIFGNR (disulfide) [F12-A1]", "values": [
      {"measurement": "mimotope concentration at which FMC63^scFv binding to NALM6 cells is compromised / abolished", "setting": "[2]", "value": "greater than 1 μM"},
      {"measurement": "mimotope concentration at which FMC63^IgG binding to CD19 is abolished", "setting": "[3]", "value": "> 10", "unit": "µM"},
      {"measurement": "CD69 induction on FMC63 CAR Jurkat cells stimulated with NALM6 after pre-blocking with mimotope", "setting": "CD19-CAR Jurkat T cells", "value": "not affected"},
      {"measurement": "time FMC63^scFv remained bound on yeast surface in the presence of excess soluble FMC63^IgG", "setting": "FMC63^scFv [4]", "value": "over 24 hours"}
    ]},
    {"substance": "RHCPWNCSLL (disulfide) [P1]", "values": [
      {"measurement": "FMC63^IgG binding to DTT-treated peptide", "setting": "FMC63^IgG [5]", "value": "completely ablated"},
      {"measurement": "binding of yeast clone at 20 nM biotinylated FMC63^IgG", "setting": "FMC63^IgG [6]; flow cytometry", "value": "no detectable binding"},
      {"measurement": "FMC63^IgG binding to yeast clone under mild reductive conditions", "setting": "FMC63^IgG [6]; yeast treated with 0.1mM, 1mM DTT, 500 nM biotin-FMC63^IgG", "value": "eliminated FMC63^IgG binding"}
    ]},
    {"substance": "amph-F12: amphiphile (DSPE-PEG2k) conjugate of F12 ({DSPE‑PEG2k‑DBCO-azido lysine}-RICPWNCKEL; disulfide 3-7 (inferred))", "values": [
      {"measurement": "CAR-T cell proliferation (CTV dilution) in LNs (in words)", "setting": "FMC63-mCAR-T cells [7]", "value": "limited proliferation"}
    ]},
    {"substance": "amph-P1: P1 with N-terminal azide conjugated to DSPE-PEG2k-DBCO ({DSPE‑PEG2k‑DBCO}-[Lys(N3)]RHCPWNCSLL; not fully specified; cysteine pairing not given here)", "values": [
      {"measurement": "pKd", "setting": "FMC63^scFv [8]", "value": "< 6.00"},
      {"measurement": "IFN-γ by ELISA", "setting": "CD19 CAR-T cells; CD19^− K562 labeled with 100 nM amph-P1, CD19 CAR-T 5:1 E:T, triplicate samples", "value": "79.6185 and 80.063 and 79.9889"},
      {"measurement": "IFN-γ secretion from CD19 CAR-T cells (in words)", "setting": "CD19 CAR-T cells; K562 labeled with 100 nM amph-P1, 5:1 E:T", "value": "effectively triggered IFN-γ secretion from CD19 CAR-T cells but to a much lesser extent than NALM6 cells"},
      {"measurement": "stimulation of control EGFRvIII CAR-T cells (in words)", "setting": "EGFRvIII-CAR-T cells; K562 labeled with 100 nM amph-ligand, 5:1 E:T, 6 hours, IFN-γ ELISA", "value": "failed to stimulate"},
      {"measurement": "IFN-γ secretion, EGFRvIII-CAR-T with amph-labelled K562 (Fig 2I)", "setting": "EGFRvIII-CAR-T cells; replicate 1", "value": 128},
      {"measurement": "IFN-γ secretion, EGFRvIII-CAR-T with amph-labelled K562 (Fig 2I)", "setting": "EGFRvIII-CAR-T cells; replicate 2", "value": 153},
      {"measurement": "IFN-γ secretion, EGFRvIII-CAR-T with amph-labelled K562 (Fig 2I)", "setting": "EGFRvIII-CAR-T cells; replicate 3", "value": 104},
      {"measurement": "CAR-T cell proliferation (CTV dilution) in LNs (in words)", "setting": "FMC63-mCAR-T cells [7]", "value": "no CAR-T cell proliferation"}
    ]},
    {"substance": "amph-mimotopeF12 ({DSPE‑PEG2k‑DBCO}-[Lys(N3)]RICPWNCKEL; disulfide 4-8 (inferred))", "values": [
      {"measurement": "IFN-γ secretion, FMC63-mCAR-T with amph-labelled K562 (Fig 5B)", "setting": "FMC63-mCAR-T cells [9]; replicate 1", "value": 739.091},
      {"measurement": "IFN-γ secretion, FMC63-mCAR-T with amph-labelled K562 (Fig 5B)", "setting": "FMC63-mCAR-T cells [9]; replicate 2", "value": 671.636},
      {"measurement": "IFN-γ secretion, FMC63-mCAR-T with amph-labelled K562 (Fig 5B)", "setting": "FMC63-mCAR-T cells [9]; replicate 3", "value": 771.636}
    ]},
    {"substance": "tisagenlecleucel", "values": [
      {"measurement": "CAR-T19 expansion", "setting": "[10]; high disease burden (n=7)", "value": "35,857 CAR19 copies/μg of DNA"},
      {"measurement": "CAR-T19 expansion", "setting": "[10]; low tumor burden (n=30)", "value": "18,718 CAR19 copies/μg of DNA"},
      {"measurement": "median time to peak CAR-T expansion", "setting": "[11]; after infusion, both cohorts (high ≥40%, n=40; low <40%, n=90), qPCR", "value": 10, "unit": "days"},
      {"measurement": "probability of continued B-cell aplasia", "setting": "[11]; high tumor burden patients, 95% CI 55–95", "value": 72, "unit": "%"},
      {"measurement": "probability of continued B-cell aplasia", "setting": "[11]; low tumor burden patients, 95% CI 57–78", "value": 67, "unit": "%"},
      {"measurement": "peak of expansion", "setting": "[12]; high tumor burden (n=23)", "value": "77,109 CAR19 copies/μg of DNA"},
      {"measurement": "peak of expansion", "setting": "[12]; low tumor burden (n=6)", "value": "25,064 CAR19 copies/μg of DNA"}
    ]}
  ]
}
